Measured values from PubChem BioAssay AID1259407 (Chemical Carcinogenesis Research Information System (CCRIS), 2018).
Active and inactive are the calls of the source. How the calls were made is not given here.

System: CCRIS mutagenicity, Ames/micronucleus/aberration tests
Test: CCRIS mutagenicity studies

Measured: mutagenic call

OCC1=CCN2CC[C@@H](O)[C@@H]12
inactive: Test System: AMES SALMONELLA TYPHIMURIUM, Strain/Indicator: TA100, Metabolic Activation: HAMSTER, LIVER, S-9, PCB, Method: PREINCUBATION inactive; negative | Test System: AMES SALMONELLA TYPHIMURIUM, Strain/Indicator: TA100, Metabolic Activation: RAT, LIVER, S-9, PCB, Method: PREINCUBATION inactive; negative | Test System: UDS HAMSTER HEPATOCYTES, Strain/Indicator: THY INCORP, Metabolic Activation: NONE, Method: AUTORADIOGRAPHY inactive; negative | Test System: UDS MOUSE HEPATOCYTES, Strain/Indicator: THY INCORP, Metabolic Activation: NONE, Method: AUTORADIOGRAPHY inactive; negative | Test System: UDS RAT HEPATOCYTES, Strain/Indicator: THY INCORP, Metabolic Activation: NONE, Method: AUTORADIOGRAPHY inactive; negative
